From patent US5861439A, “Method for enhanced electrotransport agent delivery” (priority 1994, dated 1999)
Read-outs that look alike come from different tables or passages of the source.

Experiments:
skin [1] = settings: cited from earlier work; for rate of electrotransport of sotalol (in words): compared to electrotransport without DDAA or azone (control)
skin [2] = settings: relative to sotalol alone (control); no current; cited from earlier work
human cadaver skin [3] = settings: for increase in the rate of delivery of ketoprofen: electrotransport, versus control (no enhancer); for Normalized Skin Resistance: ketoprofen electrotransport, steady state, divided by control (no enhancer), 100 μA/cm^2, 32° C.
Method: (§1) Skin strips having a thickness of 1 mm were removed from a human cadaver with an electric dermatome. These skin strips were placed in polyethylene bags, sealed and placed in a refrigerator at 4° C. for temporary storage. Prior to use in an electrotransport cell, the skin strips were placed in 1 liter beakers containing water at 60° C. for about 90 seconds, and gently stirred. The skin strips were then removed, and placed onto the absorbent side of a piece of BENCHKOTE fabric with their dermis side down. The epidermis was removed from each strip with a round-tip spatula, and flat tipped tweezers to retain the dermis. Each epidermis, stratum corneum side up, was then transferred to a 5 cm deep PYREX glass tray filled with water. Each floating epidermis was stretched essentially flat, and then removed from the water, and 2.2 cm diameter disks of each epidermis were punched out of areas having no observable surface damage. The disks were stored at 4° C. in a sealed container with water droplets to maintain their moisture.
(§2) The disks were mounted between the donor and receptor compartments, with the stratum corneum side facing the donor compartment, of a 2-compartment polycarbonate electrotransport permeation cell. The volume of each compartment was about 2 mL and the area between the two compartments, ie, the exposed area for transport, was about 1.26 cm^2.
(§3) An aqueous solution of the drug being transdermally delivered and the selected permeation enhancer composition, if any, was placed in the donor compartment. Dulbecco's phosphate buffered saline (approximately 0.15N NaCl, pH 7.0) was placed in the receptor compartment.
(§4) The rate of transport of drug and the electrical resistance of the skin were monitored throughout the experiments while applying an electric current.
(§5) The cell was maintained at 32° C. by a Haake Model D1 heating block/water bath. The electrodes were connected to a galvanostat, which applied a constant current of 126 μA (current density of 100 μA/cm^2) and monitored the voltage drop across the skin by placing two Ag/AgCl junction reference electrodes, one each in the donor and receptor solutions, and measuring the voltage difference (AV) between the electrodes.
(§6) The resistance of the skin (R) was obtained from Ohm's law:
(§7) where i equals the applied current (ie, 126 μA).
The following experiments were conducted to assess the effect of one composition of the invention, containing ethanol and dodecanol, on the transdermal delivery of sodium ketoprofen (ketoprofen anions) by electrotransport from a cathodic electrode. The electrotransport delivery of ketoprofen in the presence of various enhancers was assessed side-by-side for comparative purposes. The enhancers used were as follows: (i) ethanol alone; (ii) dodecanol alone; (iii) no enhancer; (iv) ethanol and dodecanol. […] A silver chloride composite polymer electrode (cathode) was placed in the donor compartment, and a silver foil electrode (anode) was placed in the receptor compartment.
Each experiment was started by connecting the power source to the electrodes, and samples were automatically taken from the receptor compartment every one to two hours, except for overnight experimentation, using an Isco Model 2230 autosampler and a metering pump. The concentration of ketoprofen in the samples was determined by high performance liquid chromatography (HPLC) using a Shimadzu Model SCL-6B chromatograph. Each run was conducted in triplicate, including the control, to minimize errors. All cells were set-up with tissue from the same cadaver. The selected permeation enhancer composition was placed in the donor compartment, while the control cell's donor compartment contained no enhancer.

human cadaver skin [4] = settings: for Normalized Skin Resistance (after 5 hrs): metoclopramide electrotransport, n=3, 100 μA/cm^2, 32° C.
Method: as §1, §2, §3, §4, §5, §6, §7
The experimental conditions were identical to those described in Example 1, except an aqueous solution of metoclopramide HCl, instead of sodium ketoprofen, was placed in the donor compartment. In addition, the silver chloride cathode was placed in the receptor compartment and the silver foil anode was placed in the donor compartment since metoclopramide ions are cationic as opposed to ketoprofen ions which are anionic. The concentration of metoclopramide in the donor solution was about 100 mg metoclopramide/mL, and saline pH 7 was placed in the receptor compartment. The system was maintained at 32° C. and a constant electric current of 100 μA/cm^2 was applied throughout the procedure.
The mass flux and skin resistance values were normalized versus the control. […] The skin resistance (which was calculated from the measured cell voltage ΔV using Ohm's law, […]) was also normalized with respect to the value obtained by electrotransport of metoclopramide in the absence of any permeation enhancer (rightmost column).

CC(C)NCC(O)c1ccc(NS(C)(=O)=O)cc1 (centres unmarked) [sotalol]
rate of delivery of sotalol with passage of an electric current (in words) (skin [1]; compared to its passive rate (control)): increase the rate of delivery of sotalol compared to that of its passive rate

N, N-dimethylamino acetate [DDAA]
rate of electrotransport of sotalol (in words) (skin [1]): actually reduced the rate of electrotransport delivery of the agent | rate of passive permeation of sotalol (in words) (skin [2]): increase the rate of passive permeation

CCCCCCCCCCCCN1CCCCCC1=O [azone]
rate of electrotransport of sotalol (in words) (skin [1]): actually reduced the rate of electrotransport delivery of the agent | rate of passive permeation of sotalol (in words) (skin [2]): increase the rate of passive permeation

CCCCCCCCCCCCO [Dodecanol, dodecanol]
reduction in skin resistance (human cadaver skin [3]): ~60% | increase in the rate of delivery of ketoprofen (human cadaver skin [3]): 93% | Normalized Skin Resistance (human cadaver skin [3]; enhancer dodecanol <100 mM): 0.39

CCO [Ethanol, ethanol]
mass flux of metoclopramide (in words) (human cadaver skin [4]): not to enhance, but to actually decrease, the mass flux of metoclopramide | Normalized Skin Resistance (after 5 hrs) (human cadaver skin [4]; ethanol 10 wt %, versus no enhancer): 1.32 | Normalized Skin Resistance (after 5 hrs) (human cadaver skin [4]; ethanol 20 wt %, versus no enhancer): 1.13 | Normalized Skin Resistance (after 5 hrs) (human cadaver skin [4]; ethanol 30 wt %, versus no enhancer): 1.26 | resistance of the skin during electrotransport delivery of metoclopramide (in words) (human cadaver skin [4]; ethanol alone, versus no enhancer): increase the resistance of the skin | reduction in skin resistance (human cadaver skin [3]): > 50% | increase in the rate of delivery of ketoprofen (human cadaver skin [3]): 24% | Normalized Skin Resistance (human cadaver skin [3]; enhancer 25% v/v ethanol): 0.47 | effect of difference in ethanol concentration (25% v/v alone, 20% v/v with dodecanol) (human cadaver skin [3]; in words, said to be confirmed in Example 2): does not significantly alter its effect
